In publication PMC9841532, “Exploring the Effect of Halogenation in a Series of Potent and Selective A2B Adenosine Receptor Antagonists” (Journal of Medicinal Chemistry, 2022):
Values after ≈ are worked out from the molar mass of the structure shown.

Key:
[1] = molecular target: T1, hA2BAR (Homo sapiens, UniProt P29275); assay: Radioligand binding competition, [3H]DPCPX, membranes from HEK-293-A2B cells; set-up: Exp. dG: unit not given here; conditions: experimental binding free energy, Supplementary Table S3; unit not given (errors in kcal/mol)
T1 construct: host or cells: HEK-293 (HEK-293-A2B) cell membranes
T1 sequence (P29275 1-332): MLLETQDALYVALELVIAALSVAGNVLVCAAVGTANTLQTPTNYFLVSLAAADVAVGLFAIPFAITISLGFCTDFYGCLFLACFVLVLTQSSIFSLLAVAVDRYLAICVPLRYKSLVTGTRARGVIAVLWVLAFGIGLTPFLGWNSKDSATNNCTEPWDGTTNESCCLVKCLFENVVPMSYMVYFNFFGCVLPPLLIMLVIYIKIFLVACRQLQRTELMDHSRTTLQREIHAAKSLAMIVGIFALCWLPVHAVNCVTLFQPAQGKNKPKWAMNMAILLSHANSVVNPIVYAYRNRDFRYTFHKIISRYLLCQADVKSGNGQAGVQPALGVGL
Procedure, shortened: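 Racemates, plus selected enantiomers after chiral resolution, were tested at 25 °C, with a 60 min incubation for one subtype and 30 min for others. Non-specific binding was defined with 10 μM or 100 μM R-PIA. Bound radioactivity was counted after washing and filtration.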

[2] = molecular target: T2, hA1AR (Homo sapiens, UniProt P30542); conditions: prototype series, [3H]DPCPX, human CHO cells ref 30, 31; cited from earlier work
T2 sequence (P30542 1-326): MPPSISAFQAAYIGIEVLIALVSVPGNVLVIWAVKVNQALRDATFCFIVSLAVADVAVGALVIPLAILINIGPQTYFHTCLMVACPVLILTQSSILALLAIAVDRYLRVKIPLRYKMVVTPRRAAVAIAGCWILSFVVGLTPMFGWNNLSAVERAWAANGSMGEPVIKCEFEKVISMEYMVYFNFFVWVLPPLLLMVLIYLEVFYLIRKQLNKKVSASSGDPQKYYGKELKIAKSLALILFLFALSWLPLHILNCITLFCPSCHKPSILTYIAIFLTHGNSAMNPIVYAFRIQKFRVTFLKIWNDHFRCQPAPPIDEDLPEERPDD

[3] = molecular target: T3, hA2AAR (Homo sapiens, UniProt P29274); conditions: prototype series, human HeLa cells ref 30, 31; cited from earlier work
T3 construct: expressed in transfected cells; host or cells: HeLa (HeLa-A2A) cell membranes
T3 sequence (P29274 whole entry): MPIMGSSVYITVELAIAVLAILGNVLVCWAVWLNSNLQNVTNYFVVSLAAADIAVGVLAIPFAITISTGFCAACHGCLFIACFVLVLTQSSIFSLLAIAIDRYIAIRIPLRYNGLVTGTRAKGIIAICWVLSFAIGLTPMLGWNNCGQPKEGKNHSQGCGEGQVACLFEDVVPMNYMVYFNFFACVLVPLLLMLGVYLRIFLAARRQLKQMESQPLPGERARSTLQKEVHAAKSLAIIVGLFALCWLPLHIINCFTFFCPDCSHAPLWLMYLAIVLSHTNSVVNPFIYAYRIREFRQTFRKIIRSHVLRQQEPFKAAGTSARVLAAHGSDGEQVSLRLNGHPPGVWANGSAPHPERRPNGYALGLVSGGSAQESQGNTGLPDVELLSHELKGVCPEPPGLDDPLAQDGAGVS

[4] = molecular target: T4, hA3AR (Homo sapiens, UniProt P0DMS8); conditions: prototype series, [3H]NECA, human HeLa cells ref 30, 31; cited from earlier work
T4 construct: expressed in transfected cells; host or cells: HeLa (HeLa-A3) cell membranes
T4 sequence (P0DMS8 1-318): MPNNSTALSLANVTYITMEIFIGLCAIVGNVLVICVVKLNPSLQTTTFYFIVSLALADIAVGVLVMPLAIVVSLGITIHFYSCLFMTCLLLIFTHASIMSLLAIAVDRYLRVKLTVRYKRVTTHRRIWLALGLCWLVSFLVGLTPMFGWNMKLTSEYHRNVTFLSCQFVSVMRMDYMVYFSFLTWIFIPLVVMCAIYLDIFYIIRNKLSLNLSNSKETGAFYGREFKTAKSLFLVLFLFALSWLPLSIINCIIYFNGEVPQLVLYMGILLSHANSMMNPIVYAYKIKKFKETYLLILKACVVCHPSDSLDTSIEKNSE

[5] = molecular target: A2B; conditions: Figure 1, representative A2B antagonists ref 28-32; read-out: Ki; cited from earlier work
[6] = Solubility determination (nephelometry); assay type: physicochemical; conditions: 1:99 DMSO/PSB buffer, PBS pH 7, 37 °C
Description: The solubility of selected compounds was evaluated by following a previously described method.[31] A 10 mM stock solution of the compound was serially diluted in 100% DMSO, and 2.5 μL of this solution was added to a 384-well UV-transparent plate (Greiner) containing 47.5 μL of PBS (pH = 7). The plate was incubated at 37 °C for 4 h, and the light scattering was measured in a NEPHELOstar Plus reader (BMG LABTECH). The data was fitted to a segmented linear regression for measuring the compound solubility.

Compound	Exp. dG [1]	% at 1 μM hA1 (percentage displacement of specific binding) [2] [%]	% at 1 μM hA2A (percentage displacement of specific binding) [3] [%]	% at 1 μM hA3 (percentage displacement of specific binding) [4] [%]	Ki [5] [nM]	solubility at 4 h [6] [µM]
CCOC(=O)C1=C(C)Nc2nc3ccccc3n2C1c1ccco1 (stereo not drawn) [I]	-10.8	5	14	1	12	
CC1=C(C(=O)OC(C)C)C(c2ccsc2)n2c(nc3ccccc32)N1 (stereo not drawn) [VIII]	-10.27	11	3	21		
CCOC(=O)C1=C(C)Nc2nc3ccccc3n2C1c1cccs1 (stereo not drawn) [V]		8	16	1		
CC(=O)[C@H]1CC[C@H]2[C@@H]3CCC4=CC(=O)CC[C@]4(C)[C@H]3CC[C@]12C [progesterone, reference compound]						6.7 (≈ 2.11 µg/mL)

Second part, led by results:

Exp. dG [1]	Compound	% at 1 μM hA1 (percentage displacement of specific binding) [2] [%]	% at 1 μM hA2A (percentage displacement of specific binding) [3] [%]	% at 1 μM hA3 (percentage displacement of specific binding) [4] [%]	Ki [5] [nM]	solubility at 4 h [6] [µM]
-10.26	CCOC(=O)C1=C(C)Nc2nc3ccccc3n2C1c1ccsc1 (stereo not drawn) [VII]	3	10	2		
-8.767	CC1=C(C(=O)OC(C)C)C(c2cccs2)n2c(nc3ccccc32)N1 (stereo not drawn) [VI]	1	17	3		
